The record followed here is patent US6509003B2, “Reagents for the determination of cerebral regional acetylcholinesterase activity” (Daiichi Pure Chemicals Co., Ltd., priority 1997, dated 2003).

The structures appear in SMILES notation. Read-outs that look alike come from different tables or passages of the source.

For data set [1], the target named is T1, central AchE (Rattus norvegicus, UniProt P37136).
T1 sequence (P37136 32-614): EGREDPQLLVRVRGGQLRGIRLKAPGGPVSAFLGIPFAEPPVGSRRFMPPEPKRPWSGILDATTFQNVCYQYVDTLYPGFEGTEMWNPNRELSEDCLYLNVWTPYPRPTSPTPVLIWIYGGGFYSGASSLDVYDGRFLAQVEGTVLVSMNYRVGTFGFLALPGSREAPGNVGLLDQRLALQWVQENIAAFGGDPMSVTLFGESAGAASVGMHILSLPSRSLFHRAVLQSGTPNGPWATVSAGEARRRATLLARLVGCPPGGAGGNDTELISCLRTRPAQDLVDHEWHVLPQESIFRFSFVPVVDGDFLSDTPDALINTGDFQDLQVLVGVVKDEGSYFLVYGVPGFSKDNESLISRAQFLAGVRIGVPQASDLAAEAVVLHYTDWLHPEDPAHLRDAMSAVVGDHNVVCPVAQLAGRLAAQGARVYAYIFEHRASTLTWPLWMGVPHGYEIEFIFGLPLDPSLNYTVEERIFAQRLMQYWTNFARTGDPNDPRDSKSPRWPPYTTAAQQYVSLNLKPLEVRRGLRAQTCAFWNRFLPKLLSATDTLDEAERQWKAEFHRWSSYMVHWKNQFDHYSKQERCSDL
Briefly: radioactivity distribution in the rat brain by quantitative autoradiography after intravenous administration. The note with it: 14C-labeled 13b, male white rat, i.v.

The target of data set [2] is T2, AchE (Rattus norvegicus, UniProt P37136). Briefly: hydrolysis of 14C-labeled compound in 20% rat brain cortex homogenate, radio TLC, with/without BW284c51. The note with it: for specificity for AchE in hydrolysis reaction: 14C-labeled compound, from inhibition test with BW284c51. The protocol:
Rat brain cortex was processed into a 20% (w/v) homogenate by use of 0.9% NaCl-10 mM phosphate buffer (pH 7.4).

Data set [3] has as its target T2, AchE. The data set is classed as biochemical. Further details: Cerebral cortical tissues were obtained from rats, weighed and homogenized; from tissue; host or cells: rat cerebral cortex homogenate. The protocol:
Cerebral cortical tissues were obtained from rats, weighed and homogenized (90 mg tissue/ml) in 0.1 M phosphate buffer, pH7.4. […]

Data set [4] has as its target T1, central AchE. Briefly: radioactivity distribution in the rat brain by dissection method after intravenous administration. The class given is in vivo. Further details: from tissue; host or cells: brain of living male rats (in vivo). The note with it: male wistar rats, i.v. The method, then:
After a geometrical isomer (50b) of compound No. 50 obtained in Example 8 (1) had been intravenously administered to groups of male wistar rats, radioactivity distribution in the rat brain was assayed by dissection method.

Data set [5] addresses T1, central AchE. Briefly: radioactivity distribution in the rat brain by autoradiography after intravenous administration. The data set is classed as in vivo. The arrangement: from tissue; host or cells: brain of living male rats (in vivo). The note with it: male white rat, i.v.; for migration to the brain: 14C-labeled, autoradiography.
Where [6] appears, read: immediately after administration.
[7] abbreviates: thirty minutes or more after administration.
Where [8] appears, read: fifteen minutes or more after administration.
[9] abbreviates: thirty minutes after administration.

For `CC(=O)OC1CCN(C)CC1C(O)CC/C=C/I` (single isomer, unassigned) [13b], at central AchE [1] (setting [6]), the “radioactivity distribution, brain cortex” value is reported as “high” and the “radioactivity distribution, corpus striatum” value is “low”. Also, on central AchE [1] (setting [7]), the “accumulation of radioactivity, cerebellum” value (“accumulation … cerebellum” for short) was “low accumulation of radioactivity” and the “accumulation of radioactivity, striatum” value was “high accumulation of radioactivity”. For the same compound, on AchE [2] (rat brain cortex homogenate), the “specificity for AchE in hydrolysis reaction” value came to 91.8%; the “reactivity and specificity for AchE (in words)” value was “excellent reactivity and specificity for AchE”. Also, at AchE [2] (rat, 20% (w/v) brain cortex homogenate, pH 7.4, half-life of hydrolysis, 14C-labeled (N-methyl) compound, rat brain cortex homogenate, 37°C), the half-life (in general, how long it takes for the measured level to halve) was roughly 5 min.
In the case of `C=CC[N+](C)(C)c1ccc(CCC(=O)CCc2ccc([N+](C)(C)CC=C)cc2)cc1.[Br-].[Br-]` [BW284c51, reference compound], the “hydrolysis on addition of BW284c51” value on AchE [2] (hydrolysis of 14C-labeled compound No. 13 in rat brain cortex homogenate) and at AchE [3] (hydrolysis of 123I-labeled 50b in rat cerebral cortical homogenate) was “considerably inhibited” in each case.
For the compound `COCOC(CC/C=C/[123I])C1CN(C)CCC1OC(C)=O` (single isomer, unassigned) [50b], at central AchE [4] (setting [8]), the “accumulation … cerebellum” value is “accumulation of radioactivity was low” and the “accumulation of radioactivity, striatum” value is “high accumulation of radioactivity”. In addition, at central AchE [4] (setting [6]), the “radioactivity distribution, brain cortex” value is recorded as “high” and the “radioactivity distribution, striatum” value is reported as “low”. In addition, the “specificity for AchE” value at AchE [3] (123I-labeled compound, rat cerebral cortical homogenate, 37°C, from inhibition by BW284c51) stood at 88.6%.
In the case of `CC(=O)OC1CN([14CH3])CCC1C(O)/C=C/I` (stereo not shown) [compound No. 47, N-^14C-methyl-3-acetoxy-4-(1-hydroxy-3-iodo-2-propenyl)piperidine], the “migration to the brain” value on central AchE [5] is “commonly migrated to the brain”. For the same compound, at central AchE [5] (5 minutes after administration), the “radioactivity distribution, brain cortex” value is “high”; the “radioactivity distribution, cerebellum” value is recorded as “low”; the “radioactivity distribution, corpus striatum” value is on record as “somewhat high”. Besides, at central AchE [5] (setting [9]), the “accumulation … cerebellum” value is listed as “low accumulation of radioactivity” and the “accumulation of radioactivity, corpus striatum” value is “high accumulation of radioactivity”.
Take `CC(=O)OC1CCN(C)CC1C(O)CC/C=C/I` (single isomer, unassigned) [13a]: at AchE [2] (rat brain cortex homogenate), the “specificity for AchE in hydrolysis reaction” value worked out at 80.4%.
Regarding `O.[14CH3]N1CCC(C(O)/C=C/I)C(O)C1` (stereo not drawn) [compound No. 46, N-^14C-methyl-3-hydroxy-4-(l-hydroxy-3-iodo-2-propenyl)piperidine], the “migration to the brain” value at central AchE [5] was “hardly migrated to the brain”.
